This is an account of results in patent US8431593B2, “Heteroaryl amide derivatives” (H. Lundbeck A/S, priority 2006, dated 2013).

The assay deals with T1, P2X7 receptor (Homo sapiens, UniProt Q99572).
T1 construct: host or cells: SH-SY5Y
T1 sequence (Q99572 1-595): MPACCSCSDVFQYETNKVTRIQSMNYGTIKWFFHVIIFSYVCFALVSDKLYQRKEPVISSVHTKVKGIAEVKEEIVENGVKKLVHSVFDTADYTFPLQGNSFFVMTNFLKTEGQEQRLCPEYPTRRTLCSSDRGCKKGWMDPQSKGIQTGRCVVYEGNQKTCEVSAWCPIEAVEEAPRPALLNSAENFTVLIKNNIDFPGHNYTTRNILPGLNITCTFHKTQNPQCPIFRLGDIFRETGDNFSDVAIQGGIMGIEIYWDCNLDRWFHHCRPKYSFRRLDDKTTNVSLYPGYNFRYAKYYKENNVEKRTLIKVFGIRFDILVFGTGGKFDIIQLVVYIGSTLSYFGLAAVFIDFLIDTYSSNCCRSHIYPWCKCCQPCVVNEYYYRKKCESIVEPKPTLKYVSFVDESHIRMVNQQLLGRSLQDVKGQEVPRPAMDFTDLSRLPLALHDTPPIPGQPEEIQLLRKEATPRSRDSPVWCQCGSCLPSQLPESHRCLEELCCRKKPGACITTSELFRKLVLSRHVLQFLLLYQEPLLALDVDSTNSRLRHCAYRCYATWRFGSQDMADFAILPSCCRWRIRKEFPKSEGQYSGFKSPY
The assay is described as follows: P2X7 calcium mobilization assay, high throughput, antagonist activity (Example 4A). The assay is classed as cell-based. In outline:
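Dye-loaded cells (100,000/well, seeded previous day) are pre-exposed to compound for an hour at room temperature. Fluorescence maxima are baseline-corrected against no-agonist wells and compared with the averaged agonist-well maximum.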
(In general: Calcium assays in cells follow changes in intracellular calcium, usually with a dye or a luminescent sensor.)

Setting [1] is: fluorescence response of cells exposed to 80 μM 2′(3′)-O-(4-benzoyl-benzoyl)adenosine 5′-triphosphate, Example 4A, read-out: IC50.
The mark [2] stands for this setting: SH-SY5Y cells, 50% decrease in fluorescence response to 80 μM BzATP, read-out: IC50.
[3] abbreviates: P2X7 calcium mobilization, Example 4A, 50% decrease in the fluorescence response of cells exposed to 80 μM of (2′(3′)-O-(4-benzoyl-benzoyl)adenosine 5′-triphosephate), read-out: IC50.

What is called pIC50 is the negative decadic logarithm of the IC50, by convention in mol/L.

Molecules are shown by their SMILES. pIC50: −log10 of the molar value. Like-named read-outs stand apart in the source and are kept apart here.

On to `O=C(O)CCc1cn2c(C(=O)NCC34CC5CC(CC(C5)C3)C4)cccc2n1` [Compound 296, 3-{5-[(adamantan-1-ylmethyl)carbamoyl]imidazo[1,2-a]pyridin-2-yl}propanoic acid], for which the negative logarithm of the IC50 (pIC50) under setting [1] is > 5.70.

`O=C(O)CCS(=O)(=O)Cc1cn2c(C(=O)NCC34CC5CC(CC(C5)C3)C4)cccc2n1` [Compound 346, 3-[({5-[(adamantan-1-ylmethyl)carbamoyl]imidazo[1,2-a]pyridin-2-yl}methyl)sulfonyl] propanoic acid]: the pIC50 under setting [1] is > 5.70.

As for `O=C(NCC12CC3CC(CC(C3)C1)C2)c1cccc2nc(CN(CCO)CCO)cn12` [Compound 136, N-(adamantan-1-ylmethyl)-2-{[bis(2-hydroxyeth-yl)amino]methyl}imi-dazo[1,2-a]pyridine-5-carboxamide], the pIC50 is > 5.70. For `O=C(CC12CC3CC(CC(C3)C1)C2)Nc1cccc2nc(C(=O)N3CCC(F)(F)CC3)cn12` [Compound 388, 2-adamantan-l-yl-N-(2-[(4,4-difluoropiperidin-1-yl)carbonyl]imidazo [1,2-a]pyridin-5-yl}acetamide], under setting [1], the pIC50 was > 5.70. For the molecule `CS(=O)(=O)OCCc1cn2c(C(=O)NCC34CC5CC(CC(C5)C3)C4)cccc2n1` [Compound 63, methanesulfonic acid 2-{5-[(adamantan-1-ylmethyl)-carbamoyl]-imidazo[1,2-a]pyridin-2-yl}-ethyl ester], the pIC50 under setting [2] is > 5.70. Turning to `COCCC1CCN(C(=O)Cc2cn3c(C(=O)NCC45CC6CC(CC(C6)C4)C5)cccc3n2)CC1` [Compound 35, N-(adamantan-1-ylmethyl)-2-{2-[4-(2-methoxyethyl)piperidin-1-yl]-2-oxoethyl}imidazo[1,2-a]pyridine-5-carboxamide], under setting [2], the negative-log IC50 (pIC50) was > 5.70. On the same count and under the same terms, for `CN1CCC(N(C)C(=O)Cc2cn3c(C(=O)NCC45CC6CC(CC(C6)C4)C5)cccc3n2)C1` (stereo not shown) [Compound 39, N-(adamantan-1-ylmethyl)-2-{2-[methyl(1-methylpyrrolidin-3-yl)amino]-2-oxoethyl}imidazo[1,2-a]pyridine-5-carboxamide] the value was > 5.70. Regarding `O=C(NCC1(c2ccc(Cl)cc2)CCCCC1)c1cccc2nc(C(F)(F)F)cn12` [Compound 1020, N-{[1-(4-chlorophenyl)cyclohexyl]methyl}-2-(trifluoromethyl) imidazo [1,2-a]pyridine-5-carboxamide], under setting [3], the negative-log IC50 (pIC50) was > 5.70.

Turning to `CC(C)CC(CNC(=O)c1cccc2nc(CN3CCC3)cn12)c1ccc(Cl)cc1` (stereo not shown) [Compound 1034, 2-(azetidin-1-ylmethyl)-N-[2-(4-chlorophenyl)-4-methylpentyl] imidazo[1,2-a] pyridine-5-carboxamide], the pIC50 under setting [3] was > 5.70.

Regarding `CN(CC1OCCO1)C(=O)c1cn2c(C(=O)NC[C@@H]3CC[C@H]4C[C@@H]3C4(C)C)cccc2n1` [Compound 468, 5-N-{[(1S,2R,5S)-6,6-dimethylbicyclo[3.1.1]hept-2-yl]methyl}-2-N-(1,3-dioxolan-2-ylmethyl)-2-N-methylimidazo[1,2-a]pyridine-2,5-dicarboxamide], the negative logarithm of the IC50 (pIC50) (50% decrease in the fluorescence response of cells exposed to 80 μM 2′(3′)-O-(4-benzoyl-benzoyl)adenosine 5′-triphosphate, Example 4A, read-out: IC50) was > 5.70. Turning to `CN(C)C1CCCN(C(=O)Cc2cn3c(C(=O)NC[C@H]4CCC5CC4C5(C)C)cccc3n2)C1` (stereo partly drawn) [Compound 790, 2-{2-[3-(dimethylamino)piperidin-1-yl]-2-oxoethyl}-N-{[(2S)-6,6-dimethylbicyclo [3.1.1]hept-2-yl]methyl}imidazo [1,2-a]pyridine-5-carboxamide], the pIC50 (50% decrease in the fluorescence response of cells exposed to 80 μM of 2′(3′)-O-(4-benzoyl-benzoyl)adenosine 5′-triphosphate, Example 4A, read-out: IC50) was > 5.70. Turning to `CC(C)[C@H](CO)NC(=O)Cc1cn2c(C(=O)NCC34CC5CC(CC(C5)C3)C4)cccc2n1` [Compound 32, N-(adamantan-1-ylmethyl)-2-(2-{[(1R)-1-(hydroxymethyl)-2-methylpropyl]amino}-2-oxoethyl)imidazo[1,2-a]pyridine-5-carboxamide], under setting [2], the negative-log IC50 (pIC50) is > 5.70. For the molecule `CC(=O)c1cn2c(C(=O)NCC34CC5CC(CC(C5)C3)C4)cccc2n1` [Compound 196, 2-acetyl-N-(adamantan-1-ylmethyl)imidazo[1,2-a]pyridine-5-carboxamide], the negative-log IC50 (pIC50) under setting [2] was > 5.70.
